Holding throughout (type): cell-based
The target in experiment [1] is Stimulator of interferon genes protein (Homo sapiens) (UniProt Q86WV6). Description: Inhibtion of STING in 293-Dual hSTING-R232 cells co-expressing interferon beta luciferase reporter assessed as inhibition of interferon response incubated for 16 hrs in presence of cGAMP by luminescence based luciferase gene reporter assay. The conditions noted are these: dose 1-30 µM.

In experiment [2] the target is T1, E3 ubiquitin-protein ligase RNF126/Stimulator of interferon genes protein (Homo sapiens) (UniProt Q86WV6+Q9BV68). The experiment in a line: PROTAC activity at RNF126/STING in human THP-1 cells assessed as induction of STING degradation at 10 uM incubated for 24 hrs by Western blot analysis.
Experiment [3] addresses T1, E3 ubiquitin-protein ligase RNF126/Stimulator of interferon genes protein (Homo sapiens). Description: PROTAC activity at RNF126/STING in human THP-1 cells assessed as induction of STING degradation at 3 uM incubated for 18 hrs in the presence of MG132 by Western blot analysis.
Experiment [4] shares this target. Description: PROTAC activity at RNF126/STING in human THP-1 cells assessed as induction of STING degradation at 3 to 30 uM incubated for 6 to 48 hrs by Western blot analysis. Particulars: dose 3-30 µM, time 6-48 hrs.
For experiment [5] the target is unchanged. The experiment in a line: PROTAC activity at RNF126/STING in human THP-1 cells assessed as induction of STING degradation at 3 uM incubated for 18 hrs in the presence of MLN7243 by Western blot analysis.
The target of experiment [6] is T2, Protein cereblon/Stimulator of interferon genes protein (Homo sapiens) (UniProt Q96SW2+Q86WV6). The experiment in a line: PROTAC activity at CRBN/STING in human THP-1 cells assessed as induction of STING degradation incubated for 24 to 48 hrs by Western blot analysis. The conditions noted are these: dose 3-30 µM, time 24-48 hrs.
Experiment [7] concerns the target T2, Protein cereblon/Stimulator of interferon genes protein (Homo sapiens). Description: PROTAC activity at CRBN/STING in human THP-1 cells assessed as induction of STING degradation at 3 to 30 uM incubated for 6 hrs by Western blot analysis. Particulars: dose 3-30 µM.
The target of experiment [8] is T1, E3 ubiquitin-protein ligase RNF126/Stimulator of interferon genes protein (Homo sapiens). The experiment in a line: PROTAC activity at RNF126/STING in human THP-1 cells assessed as induction of STING degradation upto 30 uM incubated for 24 hrs by Western blot analysis.

The structures appear in SMILES notation. Calls of active or inactive are those of the source. The rule behind the calls is not given here.

T1 sequence (Q86WV6 whole entry, looked up): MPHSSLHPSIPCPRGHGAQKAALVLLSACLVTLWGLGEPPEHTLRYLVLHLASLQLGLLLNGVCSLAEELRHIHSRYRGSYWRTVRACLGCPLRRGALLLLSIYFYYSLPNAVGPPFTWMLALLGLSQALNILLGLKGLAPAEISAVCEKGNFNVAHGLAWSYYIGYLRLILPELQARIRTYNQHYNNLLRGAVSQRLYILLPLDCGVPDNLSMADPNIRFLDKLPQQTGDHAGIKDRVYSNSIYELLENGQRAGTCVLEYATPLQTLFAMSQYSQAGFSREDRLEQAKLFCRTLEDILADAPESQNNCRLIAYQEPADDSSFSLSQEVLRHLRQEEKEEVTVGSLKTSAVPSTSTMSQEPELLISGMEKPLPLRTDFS
T1 sequence (Q9BV68 whole entry, looked up): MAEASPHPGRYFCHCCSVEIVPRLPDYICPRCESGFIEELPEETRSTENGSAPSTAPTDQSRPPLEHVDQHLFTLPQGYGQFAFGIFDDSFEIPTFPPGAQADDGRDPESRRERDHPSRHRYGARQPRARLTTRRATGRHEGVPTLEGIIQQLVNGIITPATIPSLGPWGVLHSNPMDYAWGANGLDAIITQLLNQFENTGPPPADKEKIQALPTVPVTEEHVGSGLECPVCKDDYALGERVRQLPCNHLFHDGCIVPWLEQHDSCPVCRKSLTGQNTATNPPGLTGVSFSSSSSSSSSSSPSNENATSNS
T2 sequence (Q86WV6 whole entry, looked up): as the sequence (Q86WV6 whole entry, looked up) above
T2 sequence (Q96SW2 whole entry, looked up): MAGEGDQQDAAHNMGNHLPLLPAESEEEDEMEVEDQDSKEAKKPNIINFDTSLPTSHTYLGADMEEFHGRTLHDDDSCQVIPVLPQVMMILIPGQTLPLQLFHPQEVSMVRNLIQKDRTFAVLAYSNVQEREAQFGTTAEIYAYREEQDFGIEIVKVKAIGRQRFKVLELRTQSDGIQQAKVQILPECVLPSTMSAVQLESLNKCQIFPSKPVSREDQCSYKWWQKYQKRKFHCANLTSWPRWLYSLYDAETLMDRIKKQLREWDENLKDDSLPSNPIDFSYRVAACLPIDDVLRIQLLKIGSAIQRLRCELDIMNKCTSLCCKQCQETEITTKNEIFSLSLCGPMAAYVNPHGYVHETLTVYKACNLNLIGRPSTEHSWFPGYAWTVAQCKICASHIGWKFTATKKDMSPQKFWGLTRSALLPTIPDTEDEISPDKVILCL
Sequence of Stimulator of interferon genes protein (Homo sapiens) (Q86WV6 whole entry): as the sequence (Q86WV6 whole entry, looked up) above

On to `COc1ccc(C(=O)/C=C/C(=O)N2CCN(c3ccc(NC(=O)c4ccc([N+](=O)[O-])o4)cc3)CC2)cc1`, for which, in experiment [1], the inhibition entry is “Dose-Dependent Effect”. The result in experiment [2] and in experiment [4] was Active. The result in experiment [3] and in experiment [5] was inactive.
For `O=C(/C=C/C(=O)Nc1ccc(NC(=O)c2ccc([N+](=O)[O-])o2)cc1)NCCCCCCNc1cccc2c1C(=O)N(C1CCC(=O)NC1=O)C2=O` (stereo not drawn), in experiment [6], the Activity result was “Dose-Dependent Effect”. Moreover, the outcome in experiment [7] was inactive.
In the case of `COc1ccc(C(=O)/C=C/C(=O)Nc2ccc(NC(=O)c3ccc([N+](=O)[O-])o3)cc2)cc1`, the result in experiment [8] was Active.

For the origin of these results see ChEMBL document CHEMBL5579807, “Development of STING degrader with double covalent ligands” (Bioorg Med Chem Lett, 2024).
